The experiment has as its target Gastrin/cholecystokinin type B receptor (Bos taurus). In words: Inhibitory activity against cholecystokinin type B receptor from bovine striatal binding assay.

For orientation: IC50 means the point on the concentration scale where inhibition reaches its midpoint. A higher IC50 goes with weaker potency.

*1 amine or outer side, *2 acyl side, *3 side chain or, on linkers, in order; H or OH if unused. Where a SMILES comes first, the peptide text is derived from it. Side-chain parts run from the residue outwards. [ ]: non-standard residue; d: D form. The star is where a group is joined. ξ: configuration not given here. Thz(5,5-Me2) = CC1(C)SCN[C@@H]1C(=O)O; NH(2-Me-phenyl) = Cc1ccccc1N*; ξF = NC(Cc1ccccc1)C(=O)O; Boc = CC(C)(C)OC(=O)*; CO = O=C([*:1])[*:2]

For the compound `Cc1ccccc1NC(=O)NCCCC[C@H](NC(=O)[C@H](Cc1c[nH]c2ccccc12)NC(=O)OC(C)(C)C)C(=O)N1CSC(C)(C)[C@H]1C(=O)NC(Cc1ccccc1)C(N)=O` (stereo partly specified) [[1-[1-[4-(1-Carbamoyl-2-phenyl-ethylcarbamoyl)-5,5-dimethyl-thiazolidine-3-carbonyl]-5-(3-o-tolyl-ureido)-pentylcarbamoyl]-2-(1H-indol-3-yl)-ethyl]-carbamic acid tert-butyl ester] (Boc-WK([CO-NH(2-Me-phenyl)])[Thz(5,5-Me2)][ξF]-NH2), the IC50 turned out to be 7.4 µM.

Source of the values: BindingDB's records for doi:10.1021/jm00100a033 (Roche Research Center, 1992).
